Assay results from patent publication US7560468B2, “Substituted 1,4,8-triazaspiro[4,5]decan-2-one compounds” (Gruenenthal GmbH, priority 2004, dated 2009).

Columns and labels:
human CB2 receptor = human CB2 receptor (Homo sapiens, UniProt P34972); assay: Affinity to the cannabinoid receptor CB2, displacement of [3H]-CP 55,940; conditions: for Inhibition CB2 10 μM, % inhibition: membranes of HEK 293EBNA cells with human CB2 receptor; for inhibition at 10 µM: read-out: Inhibition CB2 10 μM, % inhibition
Experimental: The radioligand used was tritium-labeled 5-(1,1-dimethylheptyl)-2-(5-hydroxypropyl)cyclohexyl)-1-alpha,2-beta,5-alpha)-phenol (^[3]H—CP 55,940 with 103.4 of Ci/mmol, 1 m Ci/mL). Determination was carried out in a test buffer comprising 50 mM of Tris-HCl, 2.5 mm of EDTA, 5 mm of MgCl2 and 1.0 mg/mL of fatty acid-free BSA. The test substances were in each case dissolved in DMSO.
The affinity of the compounds of the invention to the CB2 receptor is determined by their ability to displace ^[3]H—CP from 55,940 of CB2 receptors in membranes of HEK 293 EBNA cells. For this purpose 8 μg of membranes (20 mL of a solution of membranes in a concentration of 400 g/ml) are incubated in wells of a microtiter plate with a 0.33 nM of solution of [3]H-CP 55,949 (120 of Ci/mmol) in a total volume of test buffer of 200 μL for 90 minutes at 30° C.
Subsequently, either the test substances or WIN 55,212-2 for determination the non-specific binding are placed, dissolved in each case in dimethyl sulphoxide, in the wells so that in each case a concentration of the relevant substances of 10 μM is obtained.
Incubation is continued for a further 40 minutes at 30° C. dc. […] The filters are washed nine times with 0.5 mL of ice-cold washing buffer (50 nM of Tris-HCl, 5 mM of MgCl2, 2.5 mm of EDTA, 2% of BSA, pH 7.4), air-dried, placed in scintillation liquid, and the radioactivity is determined with the aid of a scintillation counter.
The percentage displacement of the radio-active ligand ^[3]H—CP 55,940 from its binding to the CB2 receptor is indicated as percentage inhibition of the specific binding. In order to determine Ki the IC50 inhibition concentrations are calculated based on of the percentage displacement achieved by the compounds of the general formula I to be tested at various concentrations causing a 50 percent displacement of the radioactive ligands.

[1] = test system: batrachotoxin (BTX) binding site of the sodium channel; assay: Affinity to the batrachotoxin (BTX) binding site of the sodium channel; conditions: rat cerebrocortex synaptosomes, [3H]-batrachotoxinin A20 α-benzoate 10 nM; test concentration not given
5-HT transporter = target: T1, 5-HT transporter (Rattus norvegicus, UniProt P31652); assay: Inhibition of 5-HT uptake in synaptosomes; assay type: biochemical; conditions: for inhibition at 1 µM: read-out: Uptake_5-HT, rat, 1 μM, % inhibition
T1 construct: from tissue; host or cells: rat brain synaptosomes (marrow/medulla and pons), P2 fraction

NA transporter = assay: Inhibition of noradrenalin uptake in synaptosomes; assay type: biochemical

Sequence of human CB2 receptor (P34972 whole entry): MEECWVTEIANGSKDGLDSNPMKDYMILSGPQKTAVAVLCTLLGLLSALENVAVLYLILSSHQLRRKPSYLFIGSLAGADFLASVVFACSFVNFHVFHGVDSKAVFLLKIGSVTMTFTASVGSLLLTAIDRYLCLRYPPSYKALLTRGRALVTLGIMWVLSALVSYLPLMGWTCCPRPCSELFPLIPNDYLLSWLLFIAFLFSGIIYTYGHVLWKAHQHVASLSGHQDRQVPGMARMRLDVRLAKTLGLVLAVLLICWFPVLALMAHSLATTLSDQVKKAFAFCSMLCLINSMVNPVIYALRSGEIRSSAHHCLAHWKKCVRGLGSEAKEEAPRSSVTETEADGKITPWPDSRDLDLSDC
T1 sequence (P31652 whole entry): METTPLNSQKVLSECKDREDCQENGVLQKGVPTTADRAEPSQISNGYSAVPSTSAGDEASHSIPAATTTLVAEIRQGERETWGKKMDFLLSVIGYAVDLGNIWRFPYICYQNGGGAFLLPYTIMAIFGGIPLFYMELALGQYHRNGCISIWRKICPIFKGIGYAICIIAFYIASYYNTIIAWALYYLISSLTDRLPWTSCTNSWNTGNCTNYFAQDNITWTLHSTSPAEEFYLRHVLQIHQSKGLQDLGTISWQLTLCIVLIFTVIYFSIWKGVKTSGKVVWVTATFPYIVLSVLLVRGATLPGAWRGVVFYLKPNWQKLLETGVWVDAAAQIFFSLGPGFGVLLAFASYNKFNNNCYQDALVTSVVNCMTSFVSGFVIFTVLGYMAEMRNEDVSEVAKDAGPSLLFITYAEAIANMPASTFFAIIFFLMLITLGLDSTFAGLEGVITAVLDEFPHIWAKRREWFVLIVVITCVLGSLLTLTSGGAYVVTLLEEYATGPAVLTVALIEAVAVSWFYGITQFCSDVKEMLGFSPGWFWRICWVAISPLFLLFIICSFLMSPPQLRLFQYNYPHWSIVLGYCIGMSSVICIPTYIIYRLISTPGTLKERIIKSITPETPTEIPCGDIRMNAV

| Structure (SMILES) | Inhibition CB2 10 μM, % inhibition (human CB2 receptor) | BTX Inhibition [1] | Uptake_5-HT, rat, 1 μM, % inhibition (5-HT transporter) | Uptake (NA), rat, 10 μM, % inhibition (NA transporter) | inhibition at 10 µM (human CB2 receptor) | inhibition at 1 µM (5-HT transporter) |
| --- | --- | --- | --- | --- | --- | --- |
| CCCCN1C(=O)C(Cc2ccccc2)NC12CCN(S(=O)(=O)c1cccc(Cl)c1)CC2 (centres unmarked) [Example 36, 3-Benzyl-1-butyl-8-(3-chlorobenzolsulfonyl)-1,4,8-triazaspiro[4,5]decan-2-one] | 40% | 49 | 65% |  |  |  |
| O=C1C(Cc2ccccc2)NC2(CCN(S(=O)(=O)c3ccc([N+](=O)[O-])cc3)CC2)N1Cc1ccccc1 (centres unmarked) [Example 43, 1,3-Dibenzyl-8-(4-nitrobenzolsulfonyl)-1,4,8-triazaspiro[4,5]decan-2-one] | 62% | 51 | 71% |  |  |  |
| CCOC(=O)CN1C(=O)C(Cc2ccccc2)NC12CCN(S(=O)(=O)c1ccc(OC)cc1)CC2 (centres unmarked) [Example 50, Ethyl[3-benzyl-8-(4-methoxy-benzolsulfonyl)-2-oxo-1,4,8-triazaspiro[4,5]dec-1-yl]-acetate] | 52% | 32 | 79% | 38% |  |  |
| C=CCN1C(=O)C(CCSC)NC12CCN(S(=O)(=O)c1ccccc1S(C)(=O)=O)CC2 (centres unmarked) [Example 54, 1-Allyl-8-(2-methansulfonylbenzolsulfonyl)-3-(2-methylsulfanylethyl)-1,4,8-triazaspiro[4,5]decan-2-one] | 56% |  | 30% | 46% |  |  |
| CCCCOc1ccc(S(=O)(=O)N2CCC3(CC2)NC(Cc2ccccc2)C(=O)N3CC(=O)OCC)cc1 (centres unmarked) [Example 73, Ethyl[3-benzyl-8-(4-butoxy-benzolsulfonyl)-2-oxo-1,4,8-triazaspiro[4,5]dec-1-yl]-acetate] | 46% | 52 | 80% |  |  |  |
| CSCCC1NC2(CCN(S(=O)(=O)c3ccccc3Cl)CC2)N(Cc2ccccc2[N+](=O)[O-])C1=O (centres unmarked) [Example 82, 8-(2-Chlorobenzolsulfonyl)-3-(2-methylsulfanylethyl)-1-(2-nitrobenzyl)-1,4,8-triazaspiro[4,5]decan-2-one] | 56% | 71 | 49% |  |  |  |
| CSCCC1NC2(CCN(C(=S)Nc3cc(C(F)(F)F)ccc3Cl)CC2)N(Cc2ccccc2C#N)C1=O (centres unmarked) [Example 147, 1-(2-Cyanobenzyl)-3-(2-methylsulfanylethyl)-2-oxo-1,4,8-triazaspiro[4,5]decan-8-thiocarboxylic acid (2-chloro-5-trifluoromethylbenzol)amide] | 48% | 81 | 33% |  |  |  |
| O=C1C(Cc2ccccc2)NC2(CCN(C(=S)NCC3CCCCC3)CC2)N1Cc1ccccc1F (centres unmarked) [Example 171, 3-Benzyl-1-(2-fluorobenzyl)-2-oxo-1,4,8-triazaspiro[4,5]decan-8-thiocarboxylic acid cyclohexylmethylamide] |  | 86 |  | 34% | 41% |  |
| CC(C)C1NC2(CCN(C(=S)NCc3ccc(F)cc3)CC2)N(Cc2ccccc2)C1=O (centres unmarked) [Example 179, 1-Benzyl-3-isopropyl-2-oxo-1,4,8-triazaspiro[4,5]decan-8-thiocarboxylic acid 4-fluorobenzylamide] |  | 58 |  |  | 43% | 47% |
| CSCCC1NC2(CCN(C(=S)NCc3ccc(F)cc3)CC2)N(Cc2ccc(F)cc2)C1=O (centres unmarked) [Example 182, 1-(4-Fluorobenzyl)-3-(2-methylsulfanylethyl)-2-oxo-1,4,8-triazaspiro[4,5]decan-8-thiocarboxylic acid 4-fluorobenzylamide] |  | 69 |  |  | 64% | 30% |
| O=C1C(Cc2ccccc2)NC2(CCN(C(=S)Nc3c(Cl)cccc3Cl)CC2)N1Cc1ccccc1F (centres unmarked) [Example 187, 3-Benzyl-1-(2-fluorobenzyl)-2-oxo-1,4,8-triazaspiro[4,5]decan-8-thiocarboxylic acid (2,6-dichlorobenzol)amide] | 84% | 86 | 54% | 39% |  |  |
| O=C1C(Cc2ccccc2)NC2(CCN(C(=S)Nc3cc(C(F)(F)F)ccc3Cl)CC2)N1Cc1ccccc1F (centres unmarked) [Example 188, 3-Benzyl-1-(2-fluorobenzyl)-2-oxo-1,4,8-triazaspiro[4,5]decan-8-thiocarboxylic acid (2-chloro-5-trifluoromethylbenzol)amide] | 49% | 77 | 59% |  |  |  |
| CCOc1ccc(NC(=O)N2CCC3(CC2)NC(CCSC)C(=O)N3Cc2ccc3ccccc3c2)cc1 (centres unmarked) [Example 231, 3-(2-Methylsulfanylethyl)-1-naphthalin-2-ylmethyl-2-oxo-1,4,8-triazaspiro[4,5]decan-8-carboxylic acid (4-ethoxy-benzol)amide] | 49% | 79 | 59% |  |  |  |
